Consider 9 molecules from PubChem BioAssay (NCI).

Molecules are shown by their SMILES. Values joined by “and” are separate entries in the source; they are usually repeats but may differ in a detail not shown here. Equal values may be shown once.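 96-well plates; 48 h exposure; 5 concentrations. Endpoints by linear interpolation between flanking doses. Not reached: highest tested concentration assigned. GI50 is the concentration that inhibits growth by half. TGI denotes the concentration required for complete inhibition of growth.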

Some test systems named below: MCF7 breast; MDA-MB-435; OVCAR-8 ovarian; HL-60(TB) leukemia; LOX IMVI melanoma; SK-OV-3 ovarian; CCRF-CEM leukemia; MOLT-4 leukemia; HCT-116 colon; OVCAR-3 ovarian.
Assay in all cases: DTP human tumour cell line panel, 48 h

Consider `O=C(Nc1cc(Cl)ccc1O)c1ccccc1Nc1ccnc(C(F)(F)F)c1`, for which the GI50 in the test with MCF7 breast was 2.75 µM; in the test on MDA-MB-435, 3.33 µM; with OVCAR-8 ovarian, 3.43 µM; in the test with HL-60(TB) leukemia, 1.46 µM; with LOX IMVI melanoma, 3.2 µM; in the test on SK-OV-3 ovarian it was 2.21 µM. Besides, the GI50 in the test with CCRF-CEM leukemia was 3.12 µM; with MOLT-4 leukemia, 2.52 µM; in the test on HCT-116 colon it was 2.2 µM; in the test on OVCAR-3 ovarian it was 1.7 µM. Moreover, the TGI in the test on MCF7 breast turned out to be 11.6 µM; in the test with MDA-MB-435 it was 11.3 µM; in the test with OVCAR-8 ovarian, 16.3 µM; in the test on HL-60(TB) leukemia it was 4.36 µM; with LOX IMVI melanoma it was 22.7 µM; with SK-OV-3 ovarian, 6.23 µM. Moreover, the TGI is 9.63 µM in the test on CCRF-CEM leukemia, 6.94 µM in the test with MOLT-4 leukemia, 5.63 µM in the test with HCT-116 colon and 4.8 µM in the test with OVCAR-3 ovarian.
Take `CCC(C)C1=C(O)[N+]2([O-])Oc3ccc(C4=C(O)C(=O)C(c5ccc(O)cc5)=C(O)C4=O)cc3OC2(C(C)CC)C(=O)N1O` (configuration not stated): the GI50 was 4.25 µM with MCF7 breast; 9.77 µM in the test on MDA-MB-435; 6.34 µM in the test on OVCAR-8 ovarian; 14.2 µM with HL-60(TB) leukemia; 7.28 µM in the test on LOX IMVI melanoma; 13.1 µM in the test with CCRF-CEM leukemia. Further, the results for the GI50 in the test on MOLT-4 leukemia, in the test on HCT-116 colon and in the test on OVCAR-3 ovarian were 11 µM, 5.02 µM and 5.39 µM, respectively. The TGI in the test on MCF7 breast was more than 100 µM; in the test with MDA-MB-435, 90.6 µM; in the test with OVCAR-8 ovarian it was more than 100 µM; in the test on HL-60(TB) leukemia it was 86.7 µM; with LOX IMVI melanoma, 33.9 µM; in the test on CCRF-CEM leukemia it was 76.7 µM. Also, the results for the total growth inhibition concentration (TGI) with MOLT-4 leukemia, with HCT-116 colon and in the test with OVCAR-3 ovarian were 41.8 µM, more than 100 µM and 49.1 µM, respectively.
As for `Oc1ccc(C(O)(c2ccccc2)c2ccccc2)c2ccccc12`, the concentration for total growth inhibition (TGI) with MCF7 breast was more than 100 µM; in the test with MDA-MB-435, 6.01 µM; with HL-60(TB) leukemia, more than 100 µM; in the test on LOX IMVI melanoma it was 2.62 µM; in the test with SK-OV-3 ovarian it was 14.1 µM; with CCRF-CEM leukemia it was 1.8 µM. In addition, the TGI with MOLT-4 leukemia was more than 100 µM; in the test on HCT-116 colon it was 10.7 µM; in the test on OVCAR-3 ovarian, 3.93 µM.
Regarding `COc1ccc(-c2cn(-c3ccc(OC)c(OC)c3)c(=O)[nH]2)cc1`, the GI50 with MCF7 breast was more than 100 µM; with MDA-MB-435 it was 50.2 µM; in the test on HL-60(TB) leukemia, 36.9 µM; with LOX IMVI melanoma, more than 100 µM; in the test with SK-OV-3 ovarian it was more than 100 µM; in the test with CCRF-CEM leukemia it was more than 100 µM. For the same molecule, the GI50 in the test on MOLT-4 leukemia was 1.72 µM; in the test with HCT-116 colon, more than 100 µM; with OVCAR-3 ovarian, more than 100 µM. In addition, the TGI in the test on MCF7 breast, in the test on MDA-MB-435, in the test with HL-60(TB) leukemia, with LOX IMVI melanoma, in the test with SK-OV-3 ovarian and in the test with CCRF-CEM leukemia was more than 100 µM throughout. Also, the TGI in the test with MOLT-4 leukemia, with HCT-116 colon and in the test on OVCAR-3 ovarian was more than 100 µM each time.
Turning to `COc1cc(-c2nc3ccccc3o2)cc(CN2CCCCC2)c1O`, the GI50 in the test on MCF7 breast was 1.58 µM; with MDA-MB-435 it was 1.7 µM; with OVCAR-8 ovarian, 11.4 µM; in the test on HL-60(TB) leukemia, 4.77 µM; in the test on SK-OV-3 ovarian, 30.2 µM; in the test on CCRF-CEM leukemia, 4.06 µM. The values for the GI50 in the test on MOLT-4 leukemia, with HCT-116 colon and in the test on OVCAR-3 ovarian were 4.99 µM, 4.27 µM and 2.75 µM, respectively. Moreover, the TGI with MCF7 breast was 4.34 µM; with MDA-MB-435, 3.53 µM; in the test on OVCAR-8 ovarian, 94.3 µM; with HL-60(TB) leukemia it was 36.9 µM; with SK-OV-3 ovarian, more than 74.1 µM; in the test on CCRF-CEM leukemia, more than 100 µM. Further, the TGI amounted to 37.4 µM in the test on MOLT-4 leukemia, 35.4 µM in the test on HCT-116 colon and 39.7 µM in the test on OVCAR-3 ovarian.
For `COc1ccc2c(c1)/C(=C\c1c(-c3cc(OC)ccc3OC)nc3sccn13)C(=O)N2`, the GI50 is 2.05 µM and 14.3 µM in the test with MDA-MB-435; 5.22 µM in the test with LOX IMVI melanoma; 9.29 µM in the test on SK-OV-3 ovarian; 6.91 µM with CCRF-CEM leukemia; 1.42 µM in the test on HCT-116 colon; 6.38 µM and 3.51 µM in the test on OVCAR-3 ovarian. Further, the TGI in the test with MDA-MB-435 was 4.6 µM and 39 µM; with LOX IMVI melanoma, 21.5 µM; with SK-OV-3 ovarian, 24.6 µM; with HCT-116 colon it was 3.48 µM; with OVCAR-3 ovarian, 14.3 µM.
As for `CC(=O)Nc1cc2cc(NS(=O)(=O)c3ccc(Cl)c(Cl)c3)ccc2oc1=O`, the concentration for total growth inhibition (TGI) was 47.7 µM with MCF7 breast; more than 100 µM with MDA-MB-435; 31.6 µM in the test on OVCAR-8 ovarian; more than 100 µM in the test with HL-60(TB) leukemia; 44.3 µM in the test on LOX IMVI melanoma; more than 100 µM with CCRF-CEM leukemia. In addition, the TGI in the test with MOLT-4 leukemia was more than 100 µM; with HCT-116 colon it was 82.2 µM; with OVCAR-3 ovarian it was more than 100 µM.
Regarding `CCN1C(=O)N(CC)C2C1NN=c1s/c(=C3\C(=O)N(C4CCCC4)c4ccccc43)c(=O)n12` (configuration not stated), the GI50 with MCF7 breast is 0.382 µM; in the test on MDA-MB-435, 0.242 µM; in the test with OVCAR-8 ovarian it was 2.12 µM; with HL-60(TB) leukemia, 1.76 µM; with LOX IMVI melanoma, 1.63 µM; with SK-OV-3 ovarian, 2.45 µM. Further, the values for the GI50 in the test with CCRF-CEM leukemia, with MOLT-4 leukemia and in the test on OVCAR-3 ovarian were 2.02 µM, 3.42 µM and 0.516 µM, respectively. Further, the TGI in the test on MCF7 breast is more than 100 µM; in the test on MDA-MB-435, 0.661 µM; with OVCAR-8 ovarian, more than 100 µM; in the test on HL-60(TB) leukemia, 4.94 µM; with LOX IMVI melanoma, more than 100 µM; in the test with SK-OV-3 ovarian it was 27.8 µM. Besides, the TGI with CCRF-CEM leukemia was 57.5 µM; with MOLT-4 leukemia, more than 100 µM; with OVCAR-3 ovarian it was 2.09 µM.
As to `CN(C)Cc1ccc(NC(=O)c2cncc(C#Cc3cnc(N)c4ncccc34)c2)cc1F`, the GI50 in the test on MCF7 breast is 1.66 µM; with MDA-MB-435 it was 1.64 µM; in the test on OVCAR-8 ovarian it was 2.31 µM; in the test with HL-60(TB) leukemia it was 7.33 µM; in the test on CCRF-CEM leukemia, 2.29 µM; with MOLT-4 leukemia, 2.21 µM. In addition, the GI50 in the test on HCT-116 colon was 1.8 µM; in the test on OVCAR-3 ovarian, 2.07 µM. Further, the TGI in the test on MCF7 breast was 3.45 µM; in the test on MDA-MB-435 it was 3.14 µM; in the test on OVCAR-8 ovarian, 5.02 µM; with HL-60(TB) leukemia it was 35.7 µM; in the test on CCRF-CEM leukemia, 6.66 µM; in the test on MOLT-4 leukemia, 5.3 µM. Further, the TGI in the test with HCT-116 colon turned out to be 3.48 µM; in the test on OVCAR-3 ovarian, 3.68 µM.
